For test [1], the system named is wildtype Wnt signaling cascade. The test can be described thus: HEK293 TOP assay (Super TopFlash luciferase reporter, Wnt-3a stimulated). Particulars: Homo sapiens, HEK293, 16 h, HEK293 TOP reporter cells, Wnt3a at EC50, 16 hours. It counts as cell-based. The method, boiled down:
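HEK293 cells stably carrying Super TopFlash (TOP) run in parallel with FOP cells, 10000/well plated 24 h ahead, stimulated with recombinant human Wnt-3a. Compounds tested 50 μM to 15 nM in 3.16-fold steps in CAFTY buffer pH 7.4 with 2 mM Ca^2+ and 0.01% BSA; luciferase read-out.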
For orientation: In a reporter assay the amount or activity of a reporter protein is the signal.

Test [2] addresses T1, TNKS2 (Homo sapiens, UniProt Q9H2K2).
T1 construct: purchased BPS Bioscience, San Diego, USA 80572 (TNKS2 Histone Ribosylation Assay Kit)
T1 sequence (Q9H2K2 1-1166): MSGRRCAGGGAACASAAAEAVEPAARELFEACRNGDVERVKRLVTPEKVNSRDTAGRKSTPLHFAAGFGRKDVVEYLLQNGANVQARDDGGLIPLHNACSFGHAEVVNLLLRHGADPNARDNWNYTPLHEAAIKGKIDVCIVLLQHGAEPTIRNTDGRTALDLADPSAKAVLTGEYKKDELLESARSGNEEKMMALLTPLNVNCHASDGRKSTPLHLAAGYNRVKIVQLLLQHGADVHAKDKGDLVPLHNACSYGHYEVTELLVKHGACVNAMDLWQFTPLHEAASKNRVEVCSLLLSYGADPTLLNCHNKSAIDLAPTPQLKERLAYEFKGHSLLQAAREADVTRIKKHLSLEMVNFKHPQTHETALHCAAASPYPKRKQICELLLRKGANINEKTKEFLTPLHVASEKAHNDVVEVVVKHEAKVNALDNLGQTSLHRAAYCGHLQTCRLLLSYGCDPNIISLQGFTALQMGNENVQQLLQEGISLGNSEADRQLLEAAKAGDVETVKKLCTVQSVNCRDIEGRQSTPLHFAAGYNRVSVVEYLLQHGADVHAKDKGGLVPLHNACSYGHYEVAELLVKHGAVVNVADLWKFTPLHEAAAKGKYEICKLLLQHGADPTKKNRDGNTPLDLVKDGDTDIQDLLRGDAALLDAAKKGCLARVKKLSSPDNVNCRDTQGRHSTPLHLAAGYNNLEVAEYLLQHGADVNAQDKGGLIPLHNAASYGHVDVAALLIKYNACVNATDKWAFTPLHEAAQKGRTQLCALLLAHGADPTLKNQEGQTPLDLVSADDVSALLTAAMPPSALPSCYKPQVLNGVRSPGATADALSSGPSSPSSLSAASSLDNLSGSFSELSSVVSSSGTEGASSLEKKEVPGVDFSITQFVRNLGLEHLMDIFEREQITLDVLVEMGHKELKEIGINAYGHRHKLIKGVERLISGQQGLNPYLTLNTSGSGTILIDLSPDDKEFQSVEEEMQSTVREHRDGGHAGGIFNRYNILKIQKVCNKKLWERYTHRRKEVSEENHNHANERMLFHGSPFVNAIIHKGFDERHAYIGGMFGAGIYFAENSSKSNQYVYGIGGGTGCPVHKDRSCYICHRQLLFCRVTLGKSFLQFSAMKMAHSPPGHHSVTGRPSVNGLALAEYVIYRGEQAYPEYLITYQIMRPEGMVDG
Briefly: TNKS2 Assay B (auto-parsylation, [3H]-NAD+ SPA). The note with it: 6 nM TNKS2, auto-parsylation, over night at room temperature. Type of test: biochemical.

Turning to `CNC(=O)c1[nH]cnc1C(=O)N[C@H]1CC[C@@]2(CCN(c3ccc(F)cc3Cl)C2=O)CC1` [Example 140, N^4-[(trans)-2-(2-chloro-4-fluorophenyl)-1-oxo-2-azaspiro[4.5]dec-8-yl]-N^5-methyl-1H-imidazole-4,5-dicarboxamide], the IC50 (commonly the concentration needed to halve the response being measured) is 0.86 nM in test [1] and 6.9 nM in test [2].

Consider `O=C(N[C@H]1CC[C@H](C(=O)Nc2ccncc2Cl)CC1)c1cnc2cccnn12` [Example 103, N-{trans-4-[(3-chloropyridin-4-yl)carbamoyl]cyclohexyl}imidazo[1,2-b]pyridazine-3-carboxamide], for which the IC50 in test [1] stood at 410 nM; in test [2], 290 nM.

Consider `O=C(NCCN1CCCCC1)c1nc[nH]c1C(=O)N[C@H]1CC[C@H](C(=O)Nc2cc(F)c(F)cc2Cl)CC1` [Example 4, N^5-{trans-4-[(2-chloro-4,5-difluorophenyl)carbamoyl]cyclohexyl}-N^4-[2-(piperidin-1-yl)ethyl]-1H-imidazole-4,5-dicarboxamide], for which the figures for the IC50 in test [1] and in test [2] were 10 nM and 2.1 nM, respectively.

Take `CNC(=O)c1[nH]cnc1C(=O)NC12CCC(C(=O)Nc3c(F)cc(F)cc3Cl)(CC1)CC2` [Example 116, N^4-{4-[(2-chloro-4,6-difluorophenyl)carbamoyl]bicyclo[2.2.2]oct-1-yl}-N^5-methyl-1H-imidazole-4,5-dicarboxamide]: the IC50 in test [1] is 330 nM; in test [2], 590 nM.

In the case of `Cc1cc(NC(=O)C23CCC(NC(=O)c4cnn5cccnc45)(CC2)CC3)c(Cl)cc1F` [Example 118, N-{4-[(2-chloro-4-fluoro-5-methylphenyl)carbamoyl]bicyclo[2.2.2]oct-1-yl}pyrazolo[1,5-a]pyrimidine-3-carboxamide], the IC50 amounted to 300 nM in test [1] and 67 nM in test [2].

With `O=C(N[C@H]1CC[C@@]2(CCN(c3ccc(F)cc3Cl)C2=O)CC1)c1cnc2cccnn12` [Example 138, N-[(trans)-2-(2-chloro-4-fluorophenyl)-1-oxo-2-azaspiro[4.5]dec-8-yl]imidazo[1,2-b]pyridazine-3-carboxamide], the results for the IC50 in test [1] and in test [2] were 6.1 nM and 7 nM, respectively.

`CNC(=O)c1nc[nH]c1C(=O)N[C@H]1CC[C@H](C(=O)Nc2ncncc2Cl)CC1` [Example 147, N^5-{trans-4-[(5-chloropyrimidin-4-yl)carbamoyl]cyclohexyl}-N^4-methyl-1H-imidazole-4,5-dicarboxamide]: the half-inhibitory concentration (IC50) in test [1] was found to be 54 nM; in test [2], 77 nM.

As to `O=C(N[C@H]1CC[C@H](C(=O)Nc2c(F)cc(F)cc2Cl)CC1)c1cnc2cccnn12` [Example 133, N-{trans-4-[(2-chloro-4,6-difluorophenyl)carbamoyl]cyclohexyl}imidazo[1,2-b]pyridazine-3-carboxamide], the values for the IC50 in test [1] and in test [2] were 290 nM and 55 nM, respectively.

As to `O=C(N[C@H]1CC[C@@]2(CCN(c3ccc(F)cc3Cl)C2=O)CC1)c1[nH]cnc1C(=O)N1CC(F)C1` [Example 166, N-[(trans)-2-(2-chloro-4-fluorophenyl)-1-oxo-2-azaspiro[4.5]dec-8-yl]-4-[(3-fluoroazetidin-1-yl)carbonyl]-1H-imidazole-5-carboxamide], the half-inhibitory concentration (IC50) in test [1] came to 0.69 nM; in test [2], 2.6 nM.

Take `CC(C)(O)CNC(=O)c1nc[nH]c1C(=O)N[C@H]1CC[C@H](C(=O)Nc2cc(C(F)(F)F)ccc2Cl)CC1` [Example 145, N^5-(trans-4-{[2-chloro-5-(trifluoromethyl)phenyl]carbamoyl}cyclohexyl)-N^4-(2-hydroxy-2-methylpropyl)-1H-imidazole-4,5-dicarboxamide]: the IC50 was 150 nM in test [1] and 280 nM in test [2].

Consider `O=C(NC1CC1)c1nc[nH]c1C(=O)N[C@H]1CC[C@@]2(CCN(c3ccc(F)cc3Cl)C2=O)CC1` [Example 165, N^5-[(trans)-2-(2-chloro-4-fluorophenyl)-1-oxo-2-azaspiro[4.5]dec-8-yl]-N^4-cyclopropyl-1H-imidazole-4,5-dicarboxamide], for which the IC50 came to 3.8 nM in test [1] and 6.3 nM in test [2].

Turning to `CNC(=O)c1nc[nH]c1C(=O)N[C@H]1CC[C@H](C(=O)Nc2cc(F)c(F)cc2Cl)CC1` [Example 3, N^5-{trans-4-[(2-chloro-4,5-difluorophenyl)carbamoyl]cyclohexyl}-N^4-methyl-1H-imidazole-4,5-dicarboxamide], the IC50 in test [1] is 13 nM; in test [2] it was 8.1 nM.

Turning to `Cc1nc2c(C(=O)N[C@H]3CC[C@H](C(=O)Nc4ccc(F)cc4Cl)CC3)cnn2c2c1CCC2` [Example 113, N-{trans-4-[(2-chloro-4-fluorophenyl)carbamoyl]cyclohexyl}-5-methyl-7,8-dihydro-6H-cyclopenta[e]pyrazolo[1,5-a]pyrimidine-3-carboxamide], the IC50 in test [1] stood at 94 nM; in test [2] it was 52 nM.

Turning to `O=C(NC12CCC(C(=O)Nc3cnccc3Cl)(CC1)CC2)c1cnc2cccnn12` [Example 124, N-{4-[(4-chloropyridin-3-yl)carbamoyl]bicyclo[2.2.2]oct-1-yl}imidazo[1,2-b]pyridazine-3-carboxamide], the IC50 in test [1] stood at 290 nM; in test [2] it was 260 nM.

For `Cc1cc(NC(=O)[C@H]2CC[C@H](NC(=O)c3[nH]cnc3C(=O)NCC(C)(C)O)CC2)c(Cl)cc1F` [Example 100, N^5-{trans-4-[(2-chloro-4-fluoro-5-methylphenyl)carbamoyl]cyclohexyl}-N^4-(2-hydroxy-2-methylpropyl)-1H-imidazole-4,5-dicarboxamide], the IC50 in test [1] is 200 nM; in test [2] it was 110 nM.

`COCC(C)NC(=O)c1nc[nH]c1C(=O)N[C@H]1CC[C@H](C(=O)Nc2cnccc2Cl)CC1` (stereo partly drawn) [Example 99, N^5-{trans-4-[(4-chloropyridin-3-yl)carbamoyl]cyclohexyl}-N^4-(1-methoxypropan-2-yl)-1H-imidazole-4,5-dicarboxamide]: the IC50 in test [1] was determined as 51 nM; in test [2], 110 nM.

The values above are taken from patent US20180148418A1, “AMIDO-SUBSTITUTED CYCLOHEXANE DERIVATIVES” (Bayer Pharma Aktiengesellschaft, priority 2015, published 2018).
